From paper PMC11862108, “Nitro‐fatty acids‐mediated nitroalkylation modulates fine‐tuning catalase antioxidant function during salinity stress in plants” (Protein Science : A Publication of the Protein Society, 2025)

How the values were obtained:
CAT from bovine liver = target: T1, CAT from bovine liver (Bos taurus, UniProt P00432); assay: H2O2 disappearance at […] nm; format: biochemical; conditions: 30 min preincubation at 25 °C; NO2-Ln concentration not given; MeOH vehicle control; regioisomer not defined
T1 construct: commercial bovine liver catalase (Sigma)
T1 sequence (P00432 2-527): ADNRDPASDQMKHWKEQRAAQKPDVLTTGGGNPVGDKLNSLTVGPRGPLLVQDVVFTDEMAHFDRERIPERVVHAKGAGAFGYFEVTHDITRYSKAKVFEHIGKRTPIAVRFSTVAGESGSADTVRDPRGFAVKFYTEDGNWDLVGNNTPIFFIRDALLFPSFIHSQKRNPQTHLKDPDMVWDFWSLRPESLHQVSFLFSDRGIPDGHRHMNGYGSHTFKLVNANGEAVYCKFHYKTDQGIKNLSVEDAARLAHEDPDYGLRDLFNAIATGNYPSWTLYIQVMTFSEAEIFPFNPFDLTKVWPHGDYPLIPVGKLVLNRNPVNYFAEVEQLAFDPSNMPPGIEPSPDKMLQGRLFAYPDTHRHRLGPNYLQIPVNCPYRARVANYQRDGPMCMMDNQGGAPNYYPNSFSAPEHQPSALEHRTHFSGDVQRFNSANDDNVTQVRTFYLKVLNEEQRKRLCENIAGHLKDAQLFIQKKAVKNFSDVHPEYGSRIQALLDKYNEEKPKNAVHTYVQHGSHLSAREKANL

[1] = target: T2, Arabidopsis recombinant CAT2 protein (Arabidopsis thaliana, UniProt P25819); assay: H2O2 disappearance at […] nm; format: biochemical; conditions: 30 min preincubation at 25 °C; covalent (nitroalkylation of His); NO2-Ln concentration not given; MeOH vehicle control; regioisomer not defined
T2 construct: commercial recombinant protein (LSBio, Life Span BioSciences); heme enzyme
T2 sequence (P25819 1-492): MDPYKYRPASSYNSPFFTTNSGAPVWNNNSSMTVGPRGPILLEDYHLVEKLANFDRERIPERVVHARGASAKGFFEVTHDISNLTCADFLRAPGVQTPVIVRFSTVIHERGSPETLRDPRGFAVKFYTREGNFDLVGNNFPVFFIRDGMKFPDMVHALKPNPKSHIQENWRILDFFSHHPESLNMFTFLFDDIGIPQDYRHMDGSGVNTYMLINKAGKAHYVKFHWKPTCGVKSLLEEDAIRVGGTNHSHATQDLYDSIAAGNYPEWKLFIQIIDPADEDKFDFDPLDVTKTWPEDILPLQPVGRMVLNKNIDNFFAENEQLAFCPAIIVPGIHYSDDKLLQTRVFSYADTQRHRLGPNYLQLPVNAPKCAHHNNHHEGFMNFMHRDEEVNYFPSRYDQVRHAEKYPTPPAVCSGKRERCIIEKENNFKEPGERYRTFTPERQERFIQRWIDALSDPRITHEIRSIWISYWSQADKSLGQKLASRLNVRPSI

- % inhibition (CAT from bovine liver): 60%
- % inhibition [1]: 36%
Substance: NO2-Ln
